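Compound exposure: 48 hours, 5 concentrations, 96-well plates. Abbreviation: GI50, concentration required for 50% inhibition of growth.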 Calls of active or inactive are those of the source. No stated cut-off is given here; in the data, active = GI50 up to about 1.1 µM and inactive = higher. Square brackets hold non-standard residues; d marks the D form. Peptide text beside a SMILES is read from it. * marks the point of attachment. Boc = CC(C)(C)OC(=O)*; Lac = C[CH](O)C(=O)O; OBn = c1ccc(CO*)cc1
Experiments:
Assay in all cases: NCI anticancer screen, dose series, 48 h
T47D = test system: T47D
BT-549 = test system: BT-549
786-0 = test system: 786-0
SNB-78 = test system: SNB-78
DLD-1 = test system: DLD-1
DMS-114 = test system: DMS-114
DMS-273 = test system: DMS-273
LXFL 529 = test system: LXFL 529
RXF 631 = test system: RXF 631

Row | SMILES | GI50 (T47D) | GI50 (BT-549) | GI50 (786-0) | GI50 (SNB-78) | GI50 (DLD-1) | GI50 (DMS-114) | GI50 (DMS-273) | GI50 (LXFL 529) | GI50 (RXF 631)
1 | COc1cc(/C=C2\N=C(c3ccccc3)N(C3Nc4cc5c(cc4S3)NC(N3C(=O)/C(=C/c4cc(OC)c(OC)c(OC)c4)N=C3c3ccccc3)S5)C2=O)cc(OC)c1OC (stereo not drawn) | 56.2 µM (inactive) | 97.1 µM (inactive) | 61.1 µM (inactive) | – | – | – | – | – | –
2 | O=C1NC(O)CCN1C1OC(CO)C(O)C1O (stereo not drawn) | – | – | – | > 250 µM (inactive) | > 250 µM (inactive) | > 250 µM (inactive) | > 250 µM (inactive) | – | –
3 | COP(=O)(OC)C(N)Cc1c[nH]c2ccccc12 (stereo not drawn) | > 100 µM (inactive) | – | – | – | – | – | – | – | –
4 | O=C1CSC(/C=C/c2ccccc2)N1c1nc2cc3sc(N4C(=O)CSC4/C=C/c4ccccc4)nc3cc2s1 (stereo not drawn) | > 100 µM (inactive) | > 75.9 µM (inactive) | > 58.9 µM (inactive) | – | – | – | – | – | –
5 | COc1cc2cc(C(=O)N3CC(CCl)c4ccc(NO)cc43)[nH]c2c(OC)c1OC (stereo not drawn) | 0.436 µM (active) | 0.253 µM (active) | 0.287 µM (active) | – | – | – | – | – | –
6 | CC(OC(=O)C(Cc1ccccc1)NC(=O)C(Cc1ccccc1)NC(=O)OC(C)(C)C)C(=O)OCc1ccccc1 (stereo not drawn) (Boc-Phe-Phe-[Lac]-OBn; configuration not given here) | > 100 µM (inactive) | > 100 µM (inactive) | – | – | – | – | – | – | –
7 | Cn1c(=O)c(C#N)c(O)c2cc3ccccc3nc21 | – | – | – | > 100 µM (inactive) | > 100 µM (inactive) | > 100 µM (inactive) | > 100 µM (inactive) | > 100 µM (inactive) | –
8 | Nc1ccccc1C(=O)N/N=C1\C(=O)Nc2ccccc21 | > 100 µM (inactive) | 30.8 µM (inactive) | 37.6 µM (inactive) | – | – | – | – | – | –
9 | CC1CC(C[N+](=O)[O-])CC2(C1)OCCO2 (stereo not drawn) | – | – | > 100 µM (inactive) | > 100 µM (inactive) | > 100 µM (inactive) | > 100 µM (inactive) | > 100 µM (inactive) | > 100 µM (inactive) | –
10 | Cc1cc(=O)oc2c1cc1ccc3cccc4ccc2c1c34 | – | – | – | 83 µM (inactive) | > 100 µM (inactive) | – | – | > 100 µM (inactive) | –
11 | Cc1n[nH]c(CC#N)n1 | – | > 100 µM (inactive) | > 100 µM (inactive) | – | – | – | – | – | –
12 | Cc1ccc(OCC2OC(n3cnc4c(Cl)nc(N)nc43)CC2Oc2ccc(C)cc2)cc1 (stereo not drawn) | 20.3 µM (inactive) | 43.3 µM (inactive) | 55.5 µM (inactive) | – | – | – | – | – | –
13 | Cc1ccc(C2CC(c3cccc([N+](=O)[O-])c3)=Nc3ccccc3S2)cc1 (stereo not drawn) | – | – | 21.8 µM (inactive) | 23.2 µM (inactive) | 20 µM (inactive) | 22.5 µM (inactive) | 33.7 µM (inactive) | 27.2 µM (inactive) | > 93.8 µM (inactive)
14 | COc1ccc(C(=O)NNC(=O)c2nsc3ccccc23)cc1 | – | – | – | > 100 µM (inactive) | – | 63 µM (inactive) | > 100 µM (inactive) | > 100 µM (inactive) | –
15 | CC1CC2=C(S(=O)(=O)c3ccccc3)CC(S(=O)(=O)c3ccccc3)(S(=O)(=O)c3ccccc3)CC21 (stereo not drawn) | – | – | – | – | > 100 µM (inactive) | 9.64 µM (inactive) | > 100 µM (inactive) | – | –
16 | CC/C=C\C/C=C\C/C=C\CCCCCCCC(=O)OC [METHYL LINOLENATE] | – | – | – | – | > 100 µM (inactive) | > 100 µM (inactive) | > 100 µM (inactive) | – | –
17 | O=C(OCCOC(=O)c1ccc2c(c1)C1(SCCS1)c1ccccc1-2)c1ccc2c(c1)C1(SCCS1)c1ccccc1-2 | – | – | – | > 100 µM (inactive) | > 100 µM (inactive) | > 100 µM (inactive) | – | > 100 µM (inactive) | –
18 | CCC(=O)NC(Nc1cccc(F)c1)(C(F)(F)F)C(F)(F)F | > 100 µM (inactive) | > 100 µM (inactive) | – | – | – | – | – | – | –
19 | COC(=O)C(F)C(Br)C(=O)OC (stereo not drawn) | 2.15 µM (inactive) | 16.2 µM (inactive) | 2.52 µM (inactive) | – | – | – | – | – | –
20 | O=C1Nc2ccc(Cl)cc2/C1=C\c1c(Cl)nc2sccn12 | > 100 µM (inactive) | 7.57 µM (inactive) | – | – | – | – | – | – | –
21 | O=C1CCC(NC(=O)Cc2ccc(O)cc2)C(=O)N1 (stereo not drawn) | – | – | – | > 2500 µM (inactive) | – | > 2500 µM (inactive) | > 2500 µM (inactive) | > 2500 µM (inactive) | > 2500 µM (inactive)
22 | C[C@H]1S[C@@H](c2ccc(Cl)cc2Cl)N(NC(=O)c2ccncc2)C1=O | 33 µM (inactive) | 39.4 µM (inactive) | – | – | – | – | – | – | –

From ChEMBL document CHEMBL1201862, “PubChem BioAssay data set” (2004)
